Reference: patent US20130165520A1, “Hybrid Molecule Having Mixed Retinoic Acid Receptor Agonism and Histone Deacetylase Inhibitory Properties” (priority 2010, published 2013)

Columns and labels:
[1] = test system: RAR target genes in MDA-MB-231 cell line; assay: RT-qPCR analysis of RAR and HDACi target genes; assay type: cell-based
Excerpt: The agonist activity of 3 through its effects on RAR target genes was subsequently analyzed (FIG. 3).

HL-60(TB) = HL-60(TB) (Leukemia); 48 h
A549/ATCC = A549/ATCC (Non-Small cell lung cancer); 48 h
HOP-62 = HOP-62 (Non-Small cell lung cancer); 48 h
NCI-H23 = NCI-H23 (Non-Small cell lung cancer); 48 h
SW-620 = SW-620 (Colon); 48 h
SN12C [2] = conditions: SN12C (Renal); 48 h
DU-145 = DU-145 (Prostate); 48 h
MDA-MB-231/ATCC = MDA-MB-231/ATCC (Breast); 48 h
MDA-MB-468 [3] = conditions: MDA-MB-468 (Breast); 48 h
SR = assay: cells; conditions: Homo sapiens, 48 h
EKVX = assay: cells; conditions: Homo sapiens, 48 h
SF-539 = assay: cells; conditions: Homo sapiens, SF-539, 48 h
M14 = assay: cells; conditions: Homo sapiens, M14, 48 h
MDA-MB-435 = assay: cells; conditions: Homo sapiens, MDA-MB-435, 48 h
SK-MEL-2 = assay: cells; conditions: Homo sapiens, SK-MEL-2, 48 h
OVCAR-8 = assay: cells; conditions: Homo sapiens, OVCAR-8, 48 h
SN12C [4] = assay: cells; conditions: Homo sapiens, 48 h
MDA-MB-468 [5] = assay: cells; conditions: Homo sapiens, MDA-MB-468, 48 h

## CC1(C)CCC(C)(C)c2cc(-c3ccc4cc(C(=O)NO)ccc4c3)ccc21 [hybrid 3]
[1]; MDA-MB-231
  regulation of HDACi-regulated genes RARB1 and CyclinD1: follow similar regulation
[1]; MDA-MB-231 cell line
  induction of RAR target genes (RT-qPCR): clear induction of RARB2 and DHRS3
HL-60(TB)
  TGI: 1.52 µM
A549/ATCC
  TGI: 2.15 µM
HOP-62
  TGI: 2.19 µM
NCI-H23
  TGI: 2.43 µM
SW-620
  TGI: 1.94 µM
SN12C [2]
  TGI: 2.37 µM
DU-145
  TGI: 1.9 µM
MDA-MB-231/ATCC
  TGI: 3.59 µM
MDA-MB-468 [3]
  TGI: 2.75 µM
SR
  GI50: 0.335 µM
SR; read-out: LC50
  CC50: 7.64 µM
EKVX
  GI50: 0.686 µM
EKVX; read-out: LC50
  CC50: 18.4 µM
SF-539
  GI50: 0.699 µM
SF-539; read-out: LC50
  CC50: 30.9 µM
M14
  GI50: 0.708 µM
M14; read-out: LC50
  CC50: 7.43 µM
MDA-MB-435
  GI50: 0.879 µM
MDA-MB-435; read-out: LC50
  CC50: 6.8 µM
SK-MEL-2
  GI50: 2.42 µM
SK-MEL-2; read-out: LC50
  CC50: 33.6 µM
OVCAR-8
  GI50: 0.459 µM
OVCAR-8; read-out: LC50
  CC50: 5.12 µM
SN12C [4]
  GI50: 1.05 µM
SN12C [4]; read-out: LC50
  CC50: 5.34 µM
MDA-MB-468 [5]
  GI50: 1.18 µM
MDA-MB-468 [5]; read-out: LC50
  CC50: 6.39 µM
